Results from publication PMC6272674, “Selected Compounds Structurally Related to Acyclic Sesquiterpenoids and Their Antibacterial and Cytotoxic Activity” (Molecules, 2015).
Like-named read-outs stand apart in the source and are kept apart here.

Experiments:
MTT viability, MEWO = assay type: cell-based, human; details: human, MEWO malignant melanoma cells, 1000 µM (IC50 exceeded 1000 µM), read-out: viability ± standard deviation at 1000 µM
Experimental: (§1) Cell lines and in vitro culture conditions: The human promyelocytic leukaemia cell line HL-60 was obtained from the Centre of Molecular and Macromolecular Biology in Łódź, Poland and was cultured in RPMI 1640 medium with 20% heat-inactivated fetal bovine serum (FBS). To reduce spontaneous differentiation, the cells were never allowed to exceed a concentration of 1.0 × 10^6 cells/mL. The human keratinocyte cell line HaCaT was obtained from Cell Lines Service, Germany (CLS) and cultured in DMEM medium with 10% FBS. Human colorectal adenocarcinoma HT29 and normal epithelial IEC-6 cell lines (from ATCC) were cultured in DMEM medium with 10% FBS. The human skin melanoma cell line MEWO (from CLS) was cultured in DMEM:F12 supplemented with 2 mM L-glutamine and 10% FBS. Human fibroblasts from gingiva isolated from original tissue, HFIB-G, (from Provitro) were cultured in Quantum 333 (from Immunique). The media were supplemented with 100 U/mL penicillin and 100 µg/mL streptomycin; all media components were obtained from Life Technologies. The adherent cell lines used in the studies were seeded on microplates before they exceeded 80% of confluence. Cells were cultured at 37 °C in 5% CO2 air atmosphere/95% air atmosphere.
(§2) Cytotoxic activity: The cells (the density for HL-60 was 0.5 × 10^4 cells/100 µL, otherwise it was 1 × 10^4 cells/100 µL) were plated into each well of 96-well microtiter plates and, after their attachment to the plate surface, treated with 10 µL of the indicated concentrations of compounds for 24 h. Viability was determined by MTT assay following the treatment. MTT (3-[4.5-dimethylthiazol-2-yl]-2.5-diphenyltetrazolium bromide; Sigma, St. Louis, MO, USA) solution was added to each well and incubated for another 4 h. The resulting MTT-formazan product was dissolved by the addition of lysis buffer (20% SDS and 50% DMF). The amount of formazan was determined by measuring absorbance at 570 nm with a Synergy 2 microplate reader (BioTek, Winooski, VT, USA) operated by the Gen5 program. The experiments were conducted three times with five replications. The results are expressed as an optical density ratio of the treatment to control. All data are presented as means ± SD.

MTT viability, HT29 = assay type: cell-based, human; details: human, HT29 colorectal adenocarcinoma cells, 1000 µM (IC50 exceeded 1000 µM), read-out: viability ± standard deviation at 1000 µM
Experimental: as §1, §2

[1] = tested on: Promyelocytic Leukaemia HL-60; assay: MTT viability, HL-60; assay type: cell-based, human; details: HL-60, MTT, range 10–1000 µM, read-out: half maximal inhibitory concentration (IC50), interpolated
Experimental: as §1, §2

MTT viability, HFIG = assay type: cell-based, human; details: human, HFIG (HFIB-G) gingival fibroblasts, 1000 µM (IC50 exceeded 1000 µM), read-out: viability ± standard deviation at 1000 µM
Experimental: as §1, §2

MTT viability, HaCaT = assay type: cell-based, human; details: human, HaCaT keratinocytes, 1000 µM (IC50 exceeded 1000 µM), read-out: viability ± standard deviation at 1000 µM
Experimental: as §1, §2

MTT viability, IEC6 = assay type: cell-based; details: rat, IEC-6 small intestine epithelial cells, 1000 µM (IC50 exceeded 1000 µM), read-out: viability ± standard deviation at 1000 µM
Experimental: as §1, §2

[2] = tested on: Staphylococcus aureus ATCC 43300; parameters: method as in doi:10.1002/ffj.3238; details: data presented by the authors before; cited from earlier work
[3] = tested on: Enterococcus faecalis ATCC 51299; parameters: method as in doi:10.1002/ffj.3238; details: data presented by the authors before; cited from earlier work
[4] = tested on: Enterococcus faecium ATCC 35667; parameters: method as in doi:10.1002/ffj.3238; details: data presented by the authors before; cited from earlier work
[5] = tested on: Escherichia coli ATCC 25922; parameters: method as in doi:10.1002/ffj.3238; details: data presented by the authors before; cited from earlier work
[6] = tested on: Klebsiella pneumoniae ATCC 700603; parameters: method as in doi:10.1002/ffj.3238; details: data presented by the authors before; cited from earlier work
[7] = tested on: Acinetobacter baumannii ATCC 19606; parameters: method as in doi:10.1002/ffj.3238; details: data presented by the authors before; cited from earlier work

Structure (SMILES)	IC50 ([1]; Homo sapiens, HL-60, 24 h) [µM]	IC50 ([1]; 24 h) [µM]	viability at 24 h, 1000 µM (MTT viability, MEWO) [%]	viability at 24 h, 1000 µM (MTT viability, HT29) [%]	viability at 24 h, 1000 µM (MTT viability, HFIG) [%]	viability at 24 h, 1000 µM (MTT viability, HaCaT) [%]	viability at 24 h, 1000 µM (MTT viability, IEC6) [%]	Minimum Inhibitory Concentrations MIC [2] [µg/mL]	Minimum Inhibitory Concentrations MIC [3] [µg/mL]	Minimum Inhibitory Concentrations MIC [4] [µg/mL]	Minimum Inhibitory Concentrations MIC [5] [µg/mL]	Minimum Inhibitory Concentrations MIC [6] [µg/mL]	Minimum Inhibitory Concentrations MIC [7] [µg/mL]
C=CC(C)(O)CCC=CC(C)CCC=C(C)C (stereo not shown) [Compound 13]	400		83	99	87	87	96	46	42	38	40	20	22
C=CC(C)(O)CC(C)CCC=C(C)C (stereo not shown) [Compound 15]	750		104	104	96	90	110	46	48	38	28	16	16
C=CC(C)(O)CCC(C)CCC=C(C)C (stereo not shown) [Compound 16]	~1000	950	100	102	106	89	113	48	38	36	32	24	22
C=CC(C)(O)C(C)CC(C)CCC=C(C)C (stereo not shown) [Compound 17]	750		112	108	87	95	98	48	38	38	46	18	16
CC(=O)CCC=C(C)CCC=C(C)C [Geranyl acetone (1), geranyl acetone, reference compound]	~295		93	98	82	89	79	48	36	28	26	18	18

More lines, main results first:

IC50 ([1]; Homo sapiens, HL-60, 24 h) [µM]	IC50 ([1]; 24 h) [µM]	Structure (SMILES)	viability at 24 h, 1000 µM (MTT viability, MEWO) [%]	viability at 24 h, 1000 µM (MTT viability, HT29) [%]	viability at 24 h, 1000 µM (MTT viability, HFIG) [%]	viability at 24 h, 1000 µM (MTT viability, HaCaT) [%]	viability at 24 h, 1000 µM (MTT viability, IEC6) [%]	Minimum Inhibitory Concentrations MIC [2] [µg/mL]	Minimum Inhibitory Concentrations MIC [3] [µg/mL]	Minimum Inhibitory Concentrations MIC [4] [µg/mL]	Minimum Inhibitory Concentrations MIC [5] [µg/mL]	Minimum Inhibitory Concentrations MIC [6] [µg/mL]	Minimum Inhibitory Concentrations MIC [7] [µg/mL]
500		C=CC(C)(O)CCC=C(C)C(C)CCC=C(C)C (stereo not shown) [Compound 12]	97	97	110	101	73	48	46	42	40	28	26
750		C=CC(C)(O)CCC=C(C)C(C)CCCC(C)C (stereo not shown) [Compound 14]	99	112	99	106	65	48	38	36	38	18	28
